Laboratory results taken from patent publication US20230391727A1, “ANALOGUES OF PENTAMIDINE AND METHODS FOR TREATING INFECTIONS” (Auransa Inc., priority 2020, published 2023).

Key:
Assay in all cases: Checkerboard/MIC assay with rifampicin
Format in all cases: cell-based
[1] = tested on: Pseudomonas aeruginosa (BCCM 27647); conditions: Pseudomonas aeruginosa BCCM27647
Text: (§1) The 17 test strains/isolates were: (1) Serratia marcescens (ATCC 13880); (2) Salmonella typhimurium (ATCC 13311); (3) Salmonella choleraesuis (ATCC 10708); (4) Acinetobacter baumannii (ATCC BAA-1605); (5) A. baumannii (ATCC 17978); (6) A. baumannii (FDA-CDC AR-BANK#0088); (7) Citrobacter freundii (ATCC 8090); (8) Pseudomonas aeruginosa (BCCM 27647); (9) P. aeruginosa (BCCM 27648); (10) Escherichia coli (ATCC 25922); (11) E. coli (ATCC 10536); (12) Stenotrophomonas maltophilia (ATCC 13637); (13) Enterobacter cloacae (ATCC BAA-1143); (14) E. cloacae (ATCC 13047); (15) E. aerogenes (ATCC 13048); (16) Klebsiella pneumoniae (NCTC 13438); and (17) Klebsiella pneumoniae (FDA-CDC AR-BANK#0160). These bacterial strains were obtained from the American Type Culture Collection (ATCC, Rockville, MD, USA); Belgian Coordinated Collections of Microorganisms; The Culture Collections of Public Health England, UK; and FDA-CDC anticimrobial Resistance Isolate Bank, USA, and cryopreserved as single-use frozen working stock cultures which were stored at −80° C.
(§2) The 17 test strains were grown on nutrient agar or tryptic soy agar (TSA) medium as below. Colonies were suspended in phosphate buffered saline (PBS) pH 7.4. The absorbance of the bacterial suspension was measured with a spectrophotometer at OD620nm, and then the suspension was adjusted to 1-2×10^8 CFU/mL in PBS. The adjusted suspension was further diluted 1:500 in cation-adjusted Mueller-Hinton Broth. Each well contained approximately 5×10^5 CFU/mL. […] The testing inoculum was prepared within minutes before adding to wells of the test plate.
(§3) Compound 3 was tested in 8 points by two-fold serial titrations from 100 to 0.78 μg/mL. […] Assay plates were incubated and MIC endpoints were read as complete inhibition of visual growth. The checkerboard combination analysis was performed following the MIC testing protocol to identify potential synergistic, indifferent or antagonistic interactions. The analysis also included each test substance alone at the same concentration ranges.
(§4) FIC (Fraction Inhibitory Concentration) and FIC Index (FICI) values for each test condition and the average of FICI values of all pairwise combinations were calculated to determine if synergy or antagonism existed between the two substances. The FIC index was determined by calculating the sum of the ratios of MICs (minimum inhibitory concentrations) for both substances. […] Synergy is defined as the FICI (Σ)≤0.5; additivity or indifference are defined as the FICI (Σ)>0.5 to ≤4; antagonism is defined as the FICI (Σ)>4. The two fold of highest test article concentration was used for FIC value calculations in the circumstances where MIC values were greater than the highest test article concentration.

E. coli (ATCC 10536) = conditions: Escherichia coli ATCC 10536
Text: as §1, §2, §3, §4

[2] = tested on: A. baumannii (FDA-CDC AR-BANK#0088); conditions: Acinetobacter baumannii AR-BANK 0088
Text: as §1, §2, §3, §4

[3] = tested on: Klebsiella pneumoniae (NCTC 13438)
Text: as §1, §2, §3, §4

[4] = tested on: Serratia marcescens (ATCC 13880)
Text: as §1, §2, §3, §4

E. cloacae (ATCC 13047) = conditions: Enterobacter cloacae ATCC-13047
Text: as §1, §2, §3, §4

[5] = tested on: Escherichia coli (ATCC 25922)
Text: as §1, §2, §3, §4

[6] = tested on: Stenotrophomonas maltophilia (ATCC 13637)
Text: as §1, §2, §3, §4

[7] = tested on: P. aeruginosa (BCCM 27648); conditions: Pseudomonas aeruginosa BCCM27648
Text: as §1, §2, §3, §4

[8] = tested on: A. baumannii (ATCC 17978); conditions: Acinetobacter baumannii ATCC 17978
Text: as §1, §2, §3, §4

[9] = tested on: Salmonella typhimurium (ATCC 13311); conditions: Salmonella typhimurium ATCC13311
Text: as §1, §2, §3, §4

[10] = tested on: Citrobacter freundii (ATCC 8090)
Text: as §1, §2, §3, §4

[11] = tested on: E. aerogenes (ATCC 13048); conditions: Enterobacter aerogenes ATCC-13048
Text: as §1, §2, §3, §4

[12] = tested on: Salmonella choleraesuis (ATCC 10708); conditions: Salmonella choleraesuis ATCC 10708
Text: as §1, §2, §3, §4

[13] = tested on: Klebsiella pneumoniae (FDA-CDC AR-BANK#0160); conditions: Klebsiella pneumoniae AR-BANK#0160
Text: as §1, §2, §3, §4

[14] = compound 3 in combination with rifampicin

N=C(N)c1ccc(CC[C@H]2CCC[C@@H](CCc3ccc(C(=N)N)cc3)C2)cc1 [Compound 3, 4,4′-(2,2′-((1R,3S)-cyclohexane-1,3-diyl)bis(ethane-2,1-diyl))dibenzimidamide]
Combination Result [1, 14]: additivity/ | FICI (Average) [1, 14]: 1.03 | MIC ([1]; substance alone): 25 µg/mL | MIC (E. coli (ATCC 10536); ATCC10536, substance alone): 6.25 µg/mL | Combination Result (E. coli (ATCC 10536); [14]): synergy (Synergy is defined as the FICI (Σ)≤0.5) | FICI (Average) (E. coli (ATCC 10536); [14]): 0.48 | Combination Result [2, 14]: synergy (Synergy is defined as the FICI (Σ)≤0.5) | FICI (Average) [2, 14]: 0.31 | MIC ([2]; substance alone): 25 µg/mL | MIC ([3]; NCTC13438, substance alone): 50 µg/mL | Combination Result [3, 14]: synergy (Synergy is defined as the FICI (Σ)≤0.5) | FICI (Average) [3, 14]: 0.22 | MIC ([4]; ATCC13880, substance alone): > 100 µg/mL | Combination Result [4, 14]: synergy (Synergy is defined as the FICI (Σ)≤0.5) | FICI (Average) [4, 14]: 0.21 | MIC (E. cloacae (ATCC 13047); ATCC13047, substance alone): 100 µg/mL | Combination Result (E. cloacae (ATCC 13047); [14]): synergy (Synergy is defined as the FICI (Σ)≤0.5) | FICI (Average) (E. cloacae (ATCC 13047); [14]): 0.19 | MIC ([5]; ATCC25922, substance alone): 6.25 µg/mL | Combination Result [5, 14]: additivity/ | FICI (Average) [5, 14]: 0.52 | MIC ([6]; ATCC13637, substance alone): 12.5 µg/mL | Combination Result [6, 14]: synergy (Synergy is defined as the FICI (Σ)≤0.5) | FICI (Average) [6, 14]: 0.39 | Combination Result [7, 14]: additivity/ | FICI (Average) [7, 14]: 1.03 | MIC ([7]; substance alone): 25 µg/mL | MIC ([8]; ATCC17978, substance alone): 25 µg/mL | Combination Result [8, 14]: synergy (Synergy is defined as the FICI (Σ)≤0.5) | FICI (Average) [8, 14]: 0.27 | MIC ([9]; Salmonella enterica, substance alone): 12.5 µg/mL | Combination Result [9, 14]: synergy (Synergy is defined as the FICI (Σ)≤0.5) | FICI (Average) [9, 14]: 0.34 | MIC ([10]; ATCC8090, substance alone): 100 µg/mL | Combination Result [10, 14]: synergy (Synergy is defined as the FICI (Σ)≤0.5) | FICI (Average) [10, 14]: 0.19 | MIC ([11]; Klebsiella aerogenes, ATCC13048, substance alone): 100 µg/mL | Combination Result [11, 14]: synergy (Synergy is defined as the FICI (Σ)≤0.5) | FICI (Average) [11, 14]: 0.19 | MIC ([12]; Salmonella enterica, substance alone, read-out: MIC): 50 µg/mL | Combination Result [12, 14]: synergy (Synergy is defined as the FICI (Σ)≤0.5) | FICI (Average) [12, 14]: 0.32 | Combination Result [13, 14]: synergy (Synergy is defined as the FICI (Σ)≤0.5) | FICI (Average) [13, 14]: 0.19 | MIC ([13]; substance alone): 100 µg/mL
